Columns and labels:
IL-1β, human PBMC = assay: Human PBMC assay (Example 27): IL-1β production; format: cell-based; settings: Homo sapiens, PBMC; Table 22; read-out: Cell PBMC avg. IC50
Procedure: Since the processing and secretion of biologically active IGIF is mediated by ICE, we compared the activity of a reversible ICE inhibitor (Ac-YVAD-CHO) on IL-1β and IFN-γ production in a peripheral blood mononuclear cell (PBMC) assay (Examples 27).
Human buffy coat cells were obtained from blood donors and peripheral blood mononuclear cells (PBMC) were isolated by centrifugation in LeukoPrep tubes (Becton-Dickinson, Lincoln Park, N.J.). PBMC were added (3×10^6/well) to 24 well Corning tissue culture plates and after 1 hr incubation at 37° C., non-adherent cells were removed by gently washing. Adherent mononuclear cells were stimulated with LPS (1 μg/ml) with or without ICE inhibitor in 2 ml RPMI-1640-10% FBS. After 16-18 hr incubation at 37° C., IGIF and IFN-γ were quantitated in culture supernatants by ELISA.

ICE = target: T1, ICE (Homo sapiens, UniProt P29466); assay: Inhibition of IGIF processing by ICE inhibitors, measured in ICE inhibition assays (Example 27, Table 22); format: biochemical; settings: read-out: UV-Visible Ki
T1 sequence (P29466 120-297 limits assumed): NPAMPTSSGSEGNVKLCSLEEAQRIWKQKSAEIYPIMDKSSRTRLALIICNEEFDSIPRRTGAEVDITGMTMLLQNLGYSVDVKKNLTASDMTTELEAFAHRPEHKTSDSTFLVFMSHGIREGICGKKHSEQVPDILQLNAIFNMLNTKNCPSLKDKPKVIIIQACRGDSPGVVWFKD
T1 sequence (P29466 317-404 limits assumed): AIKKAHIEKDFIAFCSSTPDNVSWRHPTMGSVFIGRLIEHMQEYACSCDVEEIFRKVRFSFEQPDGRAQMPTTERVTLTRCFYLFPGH
Procedure: Inhibition of IGIF processing by ICE inhibitors was measured in ICE inhibition assays as described herein (see Example 1 and Table 22).

[1] = system: IL-1β levels in the peritoneal fluid, carrageenan-challenged mice; assay: Mouse carrageenan peritoneal inflammation; format: in vivo; settings: oral administration; 214e at 50 mg/kg; result in words
Procedure: Mouse Carrageenan Peritoneal Inflammation
Inflammation was induced in mice with an intraperitoneal (IP) injection of 10 mg carrageenan in 0.5 ml of saline (Griswold et al., Inflammation, 13, pp. 727-739 (1989)). Drugs are administered by oral gavage in ethanol/PEG/water, β-cyclodextrin, labrosol/water or cremophor/water vehicle. The mice are sacrificed at 4 hours post carrageenan administration, then injected IP with 2 ml of saline containing 5 U/ml heparin. After gentle massage of the peritoneum, a small incision is made, the contents collected and volume recorded. Samples are kept on ice until centrifuged (130×g, 8 mins at 4° C.) to remove cellular material, and the resultant supernatant stored at −20° C. IL-1β levels in the peritoneal fluid are determined by ELISA.

[2] = system: male DBA/1J mice, type II collagen-induced arthritis; assay: Type II collagen-induced arthritis; format: in vivo, mouse; settings: oral gavage twice a day 10, 25 and 50 mg/kg (214e: 50 mg/kg once a day), Arthritis Severity Score, result in words
Procedure: Type II Collagen-Induced Arthritis
Type II collagen-induced arthritis was established in male DBA/1J mice at described Wooley and Geiger (Wooley, P. H., Methods in Enzymology, 162, pp. 361-373 (1988) and Geiger, T., Clinical and Experimental Rheumatology, 11, pp. 515-522 (1993)). Chick sternum Type II collagen ([…] in 10 mM acetic acid) was emulsified with an equal volume of Freund's complete adjuvant (FCA) by repeated passages (400) between two 10 ml glass syringes with a gauge 16 double-hub needle. Mice were immunized by intradermal injection (50 μl; […], CII per mouse) of collagen emulsion 21 days later at the contra-lateral side of the tail base. Drugs were administered twice a day (10, 25 and 50 mg/kg) by oral gavage approximately 7 h apart. Vehicles used included ethanol/PEG/water, β-cyclodextrin, labrosol/water or cremophor/water. Drug treatments were initiated within 2 h of the CII booster immunization. Inflammation was scored on a 1 to 4 scale of increasing severity on the two front paws and the scores are added to give the final score.

O=C[C@H](CC(=O)O)NC(=O)[C@@H]1CCCN2C(=O)CC[C@H](NC(=O)c3nccc4ccccc34)C(=O)N12 [Compound 412, [3S(1S,9S)]3-[6,10-Dioxo-9-(isoquinolin-1-oylamino)-1,2,3,4,7,8,9,10-octahydro-6H-pyridazino[1,2-a][1,2]diazepine-1-carboxamido]-4-oxobutanoic acid]
IC50 (IL-1β, human PBMC): 580 nM
Ki (ICE): 1.3 nM

O=C[C@H](CC(=O)O)NC(=O)[C@@H]1CCCN2C(=O)CC[C@H](NC(=O)c3ccccc3)C(=O)N12 [Compound 214e, [3S(1S,9S)]3-(9-Benzoylamino-6,10-dioxo-1,2,3,4,7,8,9,10-octahydro-6H-pyridazino[1,2-a][1,2]-diazepine-1-carboxamido)-4-oxobutanoic acid]
inhibition of IL-1β production in carrageenan-challenged mice [1]: did not inhibit IL-1β production
inhibition of inflammation / progression of type II collagen-induced arthritis [2]: did not inhibit inflammation

— patent US20120165319A1, “INHIBITORS OF INTERLEUKIN-1 BETA CONVERTING ENZYME” (VERTEX PHARMACEUTICALS INCORPORATED, priority 1995, published 2012)
